This is an account of results in ChEMBL document CHEMBL3612015, “Coumarins as anticancer agents: a review on synthetic strategies, mechanism of action and SAR studies” (Eur J Med Chem, 2015).

The term IC50 denotes the concentration that inhibits the measured activity by half. As usually defined, the GI50 is the concentration that inhibits growth by half.

A value given as a limit tells only on which side of the number the result lay.

Data set [1] has as its target Proto-oncogene tyrosine-protein kinase Src (Homo sapiens, UniProt P12931). Kind of data set: Inhibition of His6-tagged Src kinase domain (unknown origin) using AEEEIYGEFEAKKKK as substrate preincubated for 10 mins followed by substrate/ATP addition measured after 30 mins by fluorescence assay.
The nature of data set [2]: Cytotoxicity against human NCI60 cells assessed as cell growth after 48 hrs by SRB assay. It counts as functional. In general terms: Sulforhodamine B stains cellular protein and so reports cell mass.
The next data set deals with UO-31. The data set can be described thus: Cytotoxicity against human UO31 cells assessed as cell growth after 48 hrs by SRB assay relative to control. It counts as functional.
The next data set deals with CAKI-1. Kind of data set: Cytotoxicity against human CAKI-1 cells assessed as cell growth after 48 hrs by SRB assay relative to control. It counts as functional.
A further data set relates to MDA-MB-231. Kind of data set: Cytotoxicity against human MDA-MB-231 cells assessed as cell growth after 48 hrs by SRB assay relative to control. It counts as functional.
In another data set the test system is NCI-H522. The data set can be described thus: Cytotoxicity against human NCI-H522 cells assessed as cell growth after 48 hrs by SRB assay relative to control. It counts as functional.
The test system of another data set is MDA-MB-468. The data set can be described thus: Cytotoxicity against human MDA-MB-468 cells assessed as cell proliferation after 72 hrs by CellTiter 96 aqueous one solution cell proliferation assay relative to control. It counts as functional.
In the next data set the test system is SK-OV-3. Kind of data set: Cytotoxicity against human SKOV3 cells assessed as cell proliferation after 72 hrs by CellTiter 96 aqueous one solution cell proliferation assay relative to control. It counts as functional.
Data set [3] deals with MCF7. The data set can be described thus: Cytotoxicity against human MCF7 cells assessed as cell proliferation after 72 hrs by CellTiter 96 aqueous one solution cell proliferation assay relative to control. It is filed as functional.
Data set [4] concerns MCF7. The data set can be described thus: Cytotoxicity against human MCF7 cells assessed as growth inhibition at 50 uM after 48 hrs by MTT assay relative to control. It counts as functional. As to conditions: MCF7, 48 h, read-out: GI.
The subject of data set [5] is MCF7. The data set can be described thus: Cytotoxicity against human MCF7 cells assessed as growth inhibition at 100 uM after 48 hrs by MTT assay relative to control. It is filed as functional. As to conditions: MCF7, 48 h, read-out: GI. A general note: Formazan colour is commonly taken as a measure of viable cells.
In data set [6] the test system is MCF7. The data set can be described thus: Cytotoxicity against human MCF7 cells assessed as growth inhibition at 200 uM after 48 hrs by MTT assay relative to control. It is filed as functional. To be noted: MCF7, 48 h, read-out: GI.
Data set [7] has as its system MCF7. Kind of data set: Cytotoxicity against human MCF7 cells assessed as growth inhibition at 10 uM after 48 hrs by MTT assay relative to control. It is filed as functional. As to conditions: MCF7, 48 h, read-out: GI.
Data set [8] in a line: Cytotoxicity against rat CRL1439 cells after 48 hrs by crystal violet dye-binding assay. To be noted: read-out: LD50. It is filed as cell-based.
Data set [9] can be described thus: Cytotoxicity against rat CRL1548 cells after 48 hrs by crystal violet dye-binding assay. It counts as functional. As to conditions: CRL1548, 48 h, read-out: LD50 (the source's name).
In a further data set the test system is A549. Kind of data set: Cytotoxicity against human A549 cells after 48 hrs by crystal violet dye-binding assay. It counts as functional. As to conditions: A549, 48 h, read-out: LD50 (the source's name).
The test system of data set [10] is HeLa. Kind of data set: Cytotoxicity against human HeLa cells assessed as growth inhibition after 72 hrs by MTT assay. It counts as functional, cell-based.
In a further data set the test system is HepG2. The data set can be described thus: Cytotoxicity against human HepG2 cells assessed as growth inhibition after 72 hrs by MTT assay. It is filed as functional, cell-based. As to conditions: HepG2, 72 h.
A further data set relates to SW-620. Kind of data set: Cytotoxicity against human SW620 cells assessed as growth inhibition after 72 hrs by MTT assay. To be noted: SW-620, 72 h. It is filed as functional, cell-based.
The subject of data set [11] is MCF7. Kind of data set: Cytotoxicity against human MCF7 cells after 48 hrs by MTT assay. It is filed as functional, cell-based. To be noted: MCF7, 48 h.
In data set [12] the test system is MCF7. The data set can be described thus: Cytotoxicity against human MCF7 cells after 48 hrs by trypan blue assay. It is filed as functional, cell-based. To be noted: MCF7, 48 h.
For another data set, the system named is KETR3. Kind of data set: Cytotoxicity against human Ketr3 cells after 72 hrs by MTT assay. It is filed as functional, cell-based. As to conditions: KETR3, 72 h.
Another data set has as its system A2780. Kind of data set: Cytotoxicity against human A2780 cells after 72 hrs by MTT assay. It is filed as functional, cell-based. As to conditions: A2780, 72 h.
The subject of data set [13] is MCF7. The data set can be described thus: Cytotoxicity against human MCF7 cells after 72 hrs by MTT assay. It counts as functional, cell-based. As to conditions: MCF7, 72 h.
Data set [14] concerns HeLa. The data set can be described thus: Cytotoxicity against human HeLa cells after 72 hrs by MTT assay. It counts as functional, cell-based.
For data set [15], the system named is Paracentrotus lividus. The data set can be described thus: Antimitotic activity in sea urchin embryo assessed as embryo spinning. It is filed as functional.
Data set [16] in a line: Cytotoxicity against human NCI60 cells assessed as cell growth. It counts as functional.
In data set [17] the test system is Paracentrotus lividus. Kind of data set: Antimitotic activity in sea urchin embryo assessed as cleavage arrest. It counts as functional.
For data set [18], the system named is Paracentrotus lividus. Kind of data set: Antimitotic activity in sea urchin embryo assessed as cleavage alterations. It is filed as functional.
Data set [19] is described as follows: Cytotoxicity against human Hep2 cells. To be noted: HEp-2. It counts as functional, cell-based.
The next data set relates to Vero. The data set can be described thus: Cytotoxicity against African green monkey Vero cells. It counts as cell-based. As to conditions: Chlorocebus sabaeus.
The test system of data set [20] is U-937. Kind of data set: Cytotoxicity against human U937 cells assessed as decrease in cell viability after 48 hrs. It is filed as functional. To be noted: U-937, 48 h.
The test system of data set [21] is U-937. The data set can be described thus: Antiproliferative activity against human U937 cells after 3 days. As to conditions: U-937, 72 h. It is filed as functional, cell-based.

Sequence of Proto-oncogene tyrosine-protein kinase Src (P12931 2-536 limits assumed): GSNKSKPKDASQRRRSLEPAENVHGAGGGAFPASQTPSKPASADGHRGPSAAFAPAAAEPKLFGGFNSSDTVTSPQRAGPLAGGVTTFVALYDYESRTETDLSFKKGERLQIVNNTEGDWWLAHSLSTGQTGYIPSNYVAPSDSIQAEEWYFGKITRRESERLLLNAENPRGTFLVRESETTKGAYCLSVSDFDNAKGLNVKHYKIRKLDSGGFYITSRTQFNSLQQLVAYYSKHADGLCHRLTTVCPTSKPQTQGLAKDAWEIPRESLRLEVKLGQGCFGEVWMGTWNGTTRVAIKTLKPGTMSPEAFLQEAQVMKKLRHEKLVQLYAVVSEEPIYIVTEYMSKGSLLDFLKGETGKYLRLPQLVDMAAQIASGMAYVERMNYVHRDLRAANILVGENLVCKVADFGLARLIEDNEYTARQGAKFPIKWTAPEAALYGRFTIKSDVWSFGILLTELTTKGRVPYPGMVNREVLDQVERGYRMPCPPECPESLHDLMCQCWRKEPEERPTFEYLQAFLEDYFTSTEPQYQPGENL

In turn, `Nc1ccc2c(C(F)(F)F)cc(=O)oc2c1` displayed an IC50 in data set [1] of 30.9 µM.
For the compound `O=c1oc2ccccc2cc1C1=NN(c2ccccc2)C(c2ccc(O)cc2)C1` (stereo unspecified), the Activity in [2] is 77.59%; with UO-31, -63.77%; in the data set on CAKI-1 it was -65.18%; with MDA-MB-231, -67.37%; in the data set on NCI-H522 it was -67.37%.
In the case of `CCCCCCc1c(C)c2ccc(N(CC)CCCC(=O)O)cc2oc1=O`, the IC50 in data set [1] stood at 36.5 µM.
In data set [1], `CCCCCCCCCCc1c(C)c2ccc(N(CC)CCCC(=O)O)cc2oc1=O` yielded an IC50 of 21.6 µM.
For the compound `CCCCCCCCCCc1c(C)c2ccc(N)cc2oc1=O`, the concentration for half-maximal inhibition (IC50) in data set [1] worked out at 73.5 µM.
For `CCc1c(C)c2cc3c(c(O)c2oc1=O)OC(C)(C)CC3`, the figures for the Activity with MDA-MB-468, with SK-OV-3 and in the data set with MCF7 [3] were 85%, 30% and 45%, respectively.
The corresponding values for `CCCCCCCCCCc1c(C)c2cc3c(c(O)c2oc1=O)OC(C)(C)CC3` are 36%, 35% and 57%.
Turning to `C=CCOc1cc2oc(=O)cc(-c3nc4ccccc4s3)c2cc1OCC=C`, the inhibition of growth at 50 µM in the data set with MCF7 [4] was 25.3%. The inhibition of growth at 100 µM with MCF7 [5] worked out at 43.8%. Further, in the data set with MCF7 [6], the inhibition of growth at 200 µM stood at 70.3%. Besides, the inhibition of growth at 10 µM with MCF7 [7] turned out to be 18.5%.
Take `CC(=O)Oc1ccc(-c2c(-c3ccccc3)c3ccccc3oc2=O)cc1`: the CC50 at 48 h in data set [8] is greater than 100 µM. In addition, the results for the CC50 (in [9]; in the data set with A549) were greater than 100 µM and 89.3 µM, respectively.
With `CCN(CC)c1ccc2c(C)c(-c3ccc(OC(C)=O)cc3)c(=O)oc2c1`, the CC50 at 48 h in data set [8] turned out to be 49.1 µM. For the same compound, the CC50 in [9] was found to be 45.1 µM; with A549, 48.1 µM.
Take `COc1ccc2c(Cn3cnc(C(N)=O)n3)cc(=O)oc2c1`: in the data set on HeLa [10], the half-maximal inhibitory concentration (IC50) was determined as 35.5 µM.
In the case of `Nc1nc(Cl)c2cnn(Cc3cc(=O)oc4cc(O)ccc34)c2n1`, the IC50 was 25.6 µM with HepG2, 35.4 µM in the data set with SW-620 and 34 µM in the data set on HeLa [10].
As for `Cc1cc(C(=O)c2ccccc2Br)ccc1OCC(=O)NNC(=O)c1cc2ccccc2oc1=O`, the concentration for half-maximal inhibition (IC50) with MCF7 [11] is 7.6 µM; in the data set with MCF7 [12], 7.7 µM.
The corresponding values for `Cc1ccc(C(=O)c2cc(F)c(OCC(=O)NNC(=O)c3cc4ccccc4oc3=O)c(Cl)c2)cc1` are 9.3 µM and 9.4 µM.
The corresponding values for `Cc1cc(C(=O)c2ccc(Cl)cc2Cl)ccc1OCC(=O)NNC(=O)c1cc2ccccc2oc1=O` are 10.2 µM and 10.4 µM.
For `CO[C@@H]1[C@@H](N)[C@@H](O)[C@H](Oc2ccc3cc(NC(=O)c4ccccc4)c(=O)oc3c2Cl)OC1(C)C`, the concentration for half-maximal inhibition (IC50) is 14.6 µM in the data set on KETR3, 2.83 µM with A2780, 13.8 µM with MCF7 [13] and 5.35 µM in the data set on HeLa [14].
In the same order, the values of `CO[C@@H]1[C@@H](N)[C@@H](O)[C@H](Oc2ccc3cc(NC(=O)c4ccccc4)c(=O)oc3c2C)OC1(C)C` are 2.14 µM, 7.52 µM, 8.12 µM and 2.89 µM.
For the compound `COc1ccc(-c2cc3cc(OC)c(OC)c(OC)c3oc2=O)cc1`, the EC with Paracentrotus lividus [15] was greater than 5 µM; in the data set on Paracentrotus lividus [17], 4 µM; in the data set with Paracentrotus lividus [18], 0.2 µM. In addition, in [16], the GI50 is 3.98 µM.
For `Cc1cc(=O)oc2ccc(OCNc3ccc(F)cc3)cc12`, the IC50 is 3.62 µM in data set [19] and 30.7 µM in the data set with Vero.
The corresponding values for `Cc1cc(=O)oc2ccc(OCNc3ccccc3O)cc12` are 4.2 µM and 22.9 µM.
The corresponding values for `COc1ccccc1NCOc1ccc2oc(=O)cc(C)c2c1` are 5.43 µM and 21.3 µM.
Take `Cc1cc(=O)oc2cc(O)c(O)cc12` [4-METHYLESCULETIN]: in the data set with U-937 [20], the CC50 is 76 µM.
For `O=c1ccc2ccc(O)c(O)c2o1` [DAPHNETIN], it took 83.2 µM to reach half-maximal inhibition in the data set on U-937 [21] (IC50). Moreover, the CC50 in the data set on U-937 [20] worked out at 120 µM.
